# System: iHep cells
# Experiment: CYP metabolism assay, iHep cells incubated with substrate, metabolite by LC-MS/MS
# Conditions: for 4′-OH-Diclotenac: mouse, 3 h
# Description: To determine Alb secretion, TTFs transduced with three factors were cultured in the medium without phenol red. Culture supernatant was collected 24 h after medium change. The amount of Alb in the supernatant was determined by the mouse albumin ELISA kit (BETHYL LABORATORY) according to the manufacturer's instructions. […] The supernatants were collected for measurement of indicated productions by LC-MS/MS (AGILENT 1200 HPLC and ABI 4000 mass-spectrometer). Freshly isolated hepatocytes were used as a positive control. Total cell protein amount was used to normalize the data.
# Metabolites of these chemicals were measured by liquid chromatography-tandem mass spectrometry (LC/MS/MS) according to each standard curve.
Compound,4′-OH-Diclotenac (12.5 μM) [pmol/min/mg protein],4′-OH-Diclotenac (25 μM) [pmol/min/mg protein],4′-OH-Diclotenac (50 μM) [pmol/min/mg protein],4′-OH-Diclotenac (100 μM) [pmol/min/mg protein],"metabolism by iHep cells (iHep cells, P<0.05)"
"O=C(O)Cc1ccccc1Nc1c(Cl)cccc1Cl [Diclofenac, diclofenac]",0.0,17.0 ± 8.0,195.4 ± 16.0,483.3 ± 60.1,
"C[C@]12CC[C@H]3[C@@H](CCC4=CC(=O)CC[C@@]43C)[C@@H]1CC[C@@H]2O [Testosterone, testosterone]",,,,,metabolized

# From patent US9416348B2, “Hepatocyte-like cells and uses thereof” (priority 2010, dated 2016)
